Test results published in ChEMBL document CHEMBL3352015, “The binding mechanisms of plasma protein to active compounds in Alismaorientale rhizomes (Alismatis Rhizoma)” (Bioorg Med Chem Lett, 2014).

How the values were obtained:
Format in all cases: ADME, cell-free
[1] = Plasma protein binding in rat at 1020 ug/ml by ultrafiltration method; details: read-out: PPB (converted)
[2] = Binding affinity to Hb in rat plasma by SDS-PAGE analysis
[3] = Plasma protein binding in rat at 816 ug/ml by ultrafiltration method; details: read-out: PPB (converted)
[4] = Binding affinity to Hb in rat plasma at 2.5 x 10' -6 to 15 x 10' -6 mmol/l by fluorescence emission spectroscopy
[5] = Binding affinity to Hb in rat plasma at 1.5 x 10' -5 to 2.8 x 10' -5 mmol/l by CD spectroscopy
[6] = Plasma protein binding in rat at 408 ug/ml by ultrafiltration method; details: read-out: PPB (converted)

## CC(=O)O[C@H]([C@@H](O)C[C@@H](C)C1=C2C[C@H](O)[C@H]3[C@@]4(C)CCC(=O)C(C)(C)[C@@H]4CC[C@]3(C)[C@@]2(C)CC1)C(C)(C)O
[1]
  fraction unbound at 1020 ug/ml: 0.279
[2]
  Activity: Active
[3]
  fraction unbound at 816 ug/ml: 0.29
[4]
  Activity: Active
[5]
  Activity: Active
[6]
  fraction unbound at 408 ug/ml: 0.3
